How the values were obtained:
CYP2J2 = target: T1, CYP2J2 (Homo sapiens, UniProt P51589); assay: CBC metabolism by CYP2J2; assay type: in vitro ADME
T1 construct: His-tag; made in house; host or cells: E. coli DH-5α with pTGro7 plasmid
T1 sequence (P51589 1-502): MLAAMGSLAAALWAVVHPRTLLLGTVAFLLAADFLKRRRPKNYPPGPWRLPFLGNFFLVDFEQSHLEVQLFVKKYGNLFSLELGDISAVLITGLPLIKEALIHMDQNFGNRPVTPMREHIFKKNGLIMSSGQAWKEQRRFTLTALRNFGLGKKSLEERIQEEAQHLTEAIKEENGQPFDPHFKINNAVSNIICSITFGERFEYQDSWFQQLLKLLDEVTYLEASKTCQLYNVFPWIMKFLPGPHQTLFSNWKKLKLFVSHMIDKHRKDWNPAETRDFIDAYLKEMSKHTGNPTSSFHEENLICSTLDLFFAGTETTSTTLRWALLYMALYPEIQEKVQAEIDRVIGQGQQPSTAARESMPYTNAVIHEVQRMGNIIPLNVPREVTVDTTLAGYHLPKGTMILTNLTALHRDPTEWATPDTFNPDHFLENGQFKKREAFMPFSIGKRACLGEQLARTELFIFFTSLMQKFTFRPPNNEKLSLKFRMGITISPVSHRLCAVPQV
Description: To study the kinetics of CBC metabolism, concentration dependent metabolism of CBC was carried out in the presence of various CYPs using the following procedure. CYP2J2, CYP2C8, CYP2D6, CYP2C9, and CYP3A4 (final concentration 0.5 μM) were initially dissolved in lipid containing POPC:POPS (8:2 v/v) followed by addition of CPR (final concentration 0.6 μM) in 0.1 M potassium phosphate buffer (pH 7.4). CBC (5–80 μM) was added and incubated at 37 °C for 10 min. The reaction was triggered by NADPH and extracted using the exact sample protocol as mentioned in the HLM section.
Samples were analyzed with the 5500 QTRAP LC/MS/MS system (Sciex, Framingham, MA) in the Metabolomics Lab of Roy J. Carver Biotechnology Center, University of Illinois at Urbana–Champaign. Software Analyst 1.7.1 was used for data acquisition and analysis. The 1200 series HPLC system (Agilent Technologies, Santa Clara, CA) includes a degasser, an autosampler, and a binary pump. […] Multiple reaction monitoring (MRM) was used for quantitation: CBC m/z 315.1 → m/z 135.0; 1-acetoxy-6′,7′-dihydroxy-CBC (JM-I-73) m/z 349.1→ m/z 193.0; 1″-hydroxy-CBC (JM-I-66) m/z 331.1→ m/z 275.1; 6′,7′-epoxy-CBC (JM-I-27) m/z 331.1→ m/z 193.0; 7′,10′-ene-6′-hydroxy-CBC (JM-I-30) m/z 331.1→ m/z 193.0; 8′-hydroxy-CBC (JM-I-32) […]→ m/z 77.0. Internal standard EET-EA-d11 was monitored at m/z 375.2→ m/z 357.1.

[1] = tested on: BV2 microglial cells, stimulated with lipopolysaccharide (LPS); assay: Nitric oxide determination (Griess assay) in LPS-stimulated BV2 cells; assay type: cell-based, mouse; conditions: 0.1, 1.0, 2.5, 5.0 μM, vs cells treated with LPS only
Description: (§1) BV2 cells were a gift from Dr. Bob McCusker, University of Illinois. They were cultured and maintained at 37 °C in a humidified atmosphere of 95% air and 5% CO2 in high-glucose Dulbecco’s modified Eagle’s (DMEM) medium (Cat No. 10-013-CV, Corning Life Sciences), supplemented with 5% heat-inactivated fetal bovine serum (FBS), streptomycin (100 μg/mL), and penicillin (100 units/mL). Stocks of all the minor cannabinoids were made in ethanol and stored at −80 °C and diluted as required before cell treatment. A final concentration of ethanol was maintained at 0.1% in the cell culture experiments.
First, cell viability of BV2 cells was assessed after treatment with cannabinoids, at various concentrations (0.1, 1.0, 2.5, 5.0 μM), utilizing Cayman’s MTT assay. […] Once viability was determined, we measured the production of pro-inflammatory markers such as nitric oxide (NO), interleukin 6 (IL-6), tumor necrosis factor alpha (TNFα), and arginase 1 (Arg1) after BV2 cells were treated with minor cannabinoids and then stimulated with lipopolysaccharide (LPS) to evoke an inflammatory response.
(§2) BV-2 cells were plated at a density of 50 000 cells/well in a 24-well plate at 37 °C under controlled conditions. Cells were pretreated with the minor cannabinoids at various concentrations (0.1, 1.0, 2.5, 5.0 μM) for 4 h and then stimulated with LPS for 24 h. The culture medium was removed and saved for the determination of nitric oxide production through Cayman’s Griess assay. IL-6, TNFα, and Arginase 1 production was also determined utilizing collected medium. For the Greiss assay, in a 96-well plate, 100 μL of culture medium was used, and 50 μL of both Greiss reagent-1 and Greiss reagent-2 was added and incubated for 10 min. The absorbance was measured at 540 nm using a plate reader (SpectraMax iD5). The quantification was done using a calibration curve that was generated using the sodium nitrite standard obtained from Cayman Chemicals.

[2] = tested on: BV2 microglial cells, stimulated with lipopolysaccharide (LPS); assay: TNFα ELISA in LPS-stimulated BV2 cells; assay type: cell-based, mouse; conditions: 0.1, 1.0, 2.5, 5.0 μM
Description: as §1, §2
BV-2 cells were pretreated with the minor cannabinoids as described previously for 4 h in serum media (reduced to 5% FBS). Cells were stimulated with LPS (25 ng/mL in growth media) and allowed to incubate for 24 h. The culture medium was collected, and the concentrations of IL-6 (Cayman Chemicals), TNFα (ThermoFisher Scientific), and arginase 1 (ThermoFisher Scientific) cytokine expression were determined using specific monoclonal antibodies by ELISA kits as per manufacturer’s instructions.

TRPV1 = tested on: TRPV1; design: method as in PMID 30697147; conditions: read-out: agonism toward TRPV1; cited from earlier work
TRPV2 = tested on: TRPV2; design: method as in PMID 30697147; conditions: read-out: agonism toward TRPV2; cited from earlier work

SMILES | ratio of 8′-hydroxy-CBC to 6′,7′-epoxy-CBC formed (CYP2J2; CYP2J2, from Vmax) | production of 8′-hydroxy-CBC with CYP2J2 relative to CYP2C8 (CYP2J2; CYP2J2 vs CYP2C8) [times] | effect on NO release/production [1] | effect on TNFα production [2] | EC50 (TRPV1) [µM] | EC50 (TRPV2) [µM]
CCCCCc1cc(O)c2c(c1)OC(C)(CC/C=C(\C)CO)C=C2 (stereo not drawn) [8′-hydroxy-CBC] | approximately 50 | ~10 | elevated levels | increase |  | 
CCCCCc1cc(O)c2c(c1)OC(C)(CCC=C(C)C)C=C2 (stereo not drawn) [CBC, Cannabichromene] |  |  |  |  | < 10 | < 10

Source: PMC11061835, “Elucidating the Mechanism of Metabolism of Cannabichromene by Human Cytochrome P450s” (Journal of Natural Products, 2024)
